Laboratory results taken from patent publication US20080140036A1, “Antimicrobial Composition” (priority 2004, published 2008).

Experiments:
[1] = cited from earlier work
Candida Albicans = assay: Franz cell bioassay, infected stratum corneum sheet, ATP assay; format: cell-based; details: after 2 hours incubation, FIG. 6
Description: The concentration of organisms in suspension was determined by fluorescence technique and a viable count used for confirmation by conducting an ATP assay where ATP in cell lysate represents a measure for viable cells. Therefore, the number of viable cells after exposure to drug can be measured for drug activity and was used for suspension method or skin model.
Stratum corneum (SC) sheets were infected with microorganisms in-vitro and a Franz cell was set-up to provide more realistic conditions than agar plate test
A sample of Candida albicans (5×10^7) was dried on the stratum corneum sheet and PBS used as receiver fluid. The Micap formulations were used at 10% aqueous suspensions and the Micap formulations and Pevaryl® were applied to the stratum corneum sheet and incubated at 37° C. The reaction was stopped after set time by dismantling the Franz cell and transferring the stratum corneum into TCA. ATP assay was then carried out on the cell lysate to determine activity.

SMILES	logP(o/w) [1]	ATP remaining (Candida Albicans) [%]
CCCCCCCC1CCCC(=O)O1 (racemic) [(+−)-5-dodecanolide]	4.0	–
Fc1cc(F)cc(F)c1 [1,3,5-Trifluorobenzene]	2.6	–
Fc1cccc(F)c1 [1,3-Difluorobenzene]	2.4	–
C=CC(C)(CCC=C(C)C)OC(=O)CCCCC (centres unmarked) [1,5-dimethyl-1-vinyl-4-hexenyl hexanoate]	4.5	–
CCCCCCCCN1CCCC1=O [1-octyl-2-pyrrolidinone]	3.3	–
CC(C)c1ccccc1O [2-isopropyl phenol]	2.7	–
CCCCC(C)C(=O)O (centres unmarked) [2-methyl hexanoic acid]	2.1	–
CC(C)=CC(=O)OCCc1ccccc1 [2-phenylethyl 3-methyl-2-butenoate]	2.7	–
Cc1cccc(I)c1 [3-Iodotoluene]	3.7	–
CC(C)CCN [3-methyl butylamine]	1.1	–
CCc1ccc(O)c(OC)c1 [4-ethyl-2-methoxy phenol]	2.4	–
CCO [20% ethanol, ethanol]	–	75
CC/C=C\CCOC(=O)C(C)CC (centres unmarked) [(Z)-3-hexenyl 2-methylbutanoate]	2.8	–
CC/C=C\CCOC(C)=O [(Z)-3-hexenyl acetate]	1.5	–
CC/C=C\CCOC(=O)CCC [(Z)-3-hexenyl butanoate]	2.4	–
CCCCCCCCCC [Decane]	5.3	–

SMILES	logP(o/w) [1]	ATP remaining (Candida Albicans) [%]
COC(=O)CCCCC(=O)OC [Dimethyl adipate]	1.4	–
CCCCCCCO [Micap 1-Heptanol, 1-Heptanol]	3.1	–
CCCCCC1CCCC(=O)O1 (centres unmarked) [Micap 5-decanolide, 5-decanolide]	3.1	–
CCCCCCCCC [Nonane]	4.8	–
CCCCCCCCCCCCCC [Tetradecane]	7.2	–
CCCSSCCC [dipropyl disulfide]	3.7	–
CCOC(=O)CC(C)C [ethyl 3-methylbutanoate]	1.8	–
CC/C=C/CC(=O)OCC [ethyl (E)-3-hexenoate]	1.7	–
CCCCCC(=O)OCC [ethyl hexanoate]	2.3	–
CCCCCCCCC(=O)OCC [ethyl nonanoate]	3.7	–
CCCCCC(C)=O [heptan-2-one]	1.9	–
CCCCCCC(C)=O [octan-2-one]	2.3	–
CCCCCCCCO [octanol]	2.8	–
CCCCCCCCOC(C)=O [octyl acetate]	3.3	–
CCCCCCCCOC(=O)C(C)C [octyl isobutyrate]	4.2	–
CC(=O)OCC(COC(C)=O)OC(C)=O [triacetin]	0.4	–
